From PubChem BioAssay (NCI)
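Protocol summary: plate cells (96-well), add compound at 5 concentrations, incubate 48 h, interpolate endpoints linearly. Here, GI50 denotes the concentration required for 50% inhibition of growth. The concentration for full growth arrest is given as TGI.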

Each molecule was assayed on M19-MEL melanoma (assay: inhibition of tumour cell growth, NCI panel, 48 h).

Row | Compound | TGI [µM] | GI50 [µM]
1 | CC1CCC(C(C)(C)c2ccccc2)C(=O)C1 (stereo unspecified) | > 100 | 
2 | O=C1CC2CCN(C(=O)c3ccccc3)CC2CCN1 (stereo unspecified) | > 100 | 
3 | O=C1C=CC(=CC=C2C=CN(CCCCCCCCCCC(=O)NCCCCCCCCCCCC(=O)O)C=C2)C=C1 | > 100 | 
4 | COc1cc(/C=N\O[Si](C)(C)C(C)(C)C)ccc1O[Si](C)(C)C(C)(C)C | > 100 | 
5 | O=C1C2[C@@H](C(=O)N1c1ccc(Br)cc1)C13C(=CC2([N+](=O)[O-])[C@@H]2C(=O)N(c4ccc(Br)cc4)C(=O)[C@@H]21)c1ccccc1N3c1ccccc1 (stereo partly specified) | > 100 | 
6 | Nc1ccc(C2=N/C(=C\c3cccc(N)c3)C(=O)O2)cc1 | > 100 | 
7 | NCCN.O=C([O-])[O-].O=C([O-])[O-].[Co+3].[K+] | > 100 | > 100

Each molecule was assayed on SNB-78 CNS (assay: inhibition of tumour cell growth, NCI panel, 48 h).

Row | Compound | TGI [µM] | GI50 [µM]
8 | CCc1cccc(C)c1NC(=O)CC1C(=O)Nc2ccccc2S1=O (stereo unspecified) | > 100 | 
9 | Cc1ccc(N2C(=O)N(c3ccc(C)cc3)C3(SC=NN3C)C2=O)cc1 (stereo unspecified) | > 100 | 
10 | O=C1c2ccc3c4ccccc4n(-c4ccccc4)c3c2C(=O)N1c1ccc(Cl)cc1 | > 100 | 
11 | Cc1ccc2c(c1-c1ccccc1)C(=O)OC2 | > 100 | 
12 | CCC[CH2][Sn]1([CH2]CCC)[O]CC(COc2c(Cl)cc(Cl)cc2Cl)[O]1 (stereo unspecified) | 3.49 | 0.962
13 | NC(CCc1ncc(C(=O)O)s1)C(=O)O (stereo unspecified) | > 100 | 
14 | CSc1ccc2c(cc1=O)[C@@H](NC(=O)c1cc(O)c(O)c(O)c1)CCc1cc(O)c(O)c(O)c1-2 | 91.8 | 
15 | COc1cc(-c2nnc3n2NC=C(C(=O)O)S3)cc(OC)c1OC | > 100 | 
16 | O=C1c2ccccc2C(=O)N1C/C=N/NS(=O)(=O)c1ccc(Br)cc1 | > 100 | 
17 | COc1cc(/C=C/C(=O)Oc2ccccc2)ccc1C(=O)O/C=C/c1ccccc1 | > 100 | 
18 | NC(=O)c1cn(Cc2ccccc2)c(=O)n1Cc1ccccc1 | > 100 | 
19 | CCOC(=O)C(C)(c1c(C)[nH]c2ccccc12)c1c(C)[nH]c2ccccc12 | 49.2 | 
20 | Cc1c(Cl)cccc1NC(=O)c1cccc([N+](=O)[O-])c1O | > 92.6 | 
21 | CC1COS(=O)O1 (stereo unspecified) | > 100 | 
22 | CC1CCC(C(C)(C)c2ccccc2)C(=O)C1 (stereo unspecified) | > 100 | 
23 | O=C1CC2CCN(C(=O)c3ccccc3)CC2CCN1 (stereo unspecified) | > 100 | 
24 | O=C1C=CC(=CC=C2C=CN(CCCCCCCCCCC(=O)NCCCCCCCCCCCC(=O)O)C=C2)C=C1 | > 100 | 
25 | C1COCCSC2=C(SCCO1)SC(=C1SC3=C(SCCOCCOCCS3)S1)S2 | > 100 | 
26 | COc1cc(/C=N\O[Si](C)(C)C(C)(C)C)ccc1O[Si](C)(C)C(C)(C)C | > 100 | 
27 | O=C1C2[C@@H](C(=O)N1c1ccc(Br)cc1)C13C(=CC2([N+](=O)[O-])[C@@H]2C(=O)N(c4ccc(Br)cc4)C(=O)[C@@H]21)c1ccccc1N3c1ccccc1 (stereo partly specified) | > 100 | 
28 | Nc1ccc(C2=N/C(=C\c3cccc(N)c3)C(=O)O2)cc1 | > 100 | 
29 | NCCN.O=C([O-])[O-].O=C([O-])[O-].[Co+3].[K+] | > 100 | > 100

What follows are molecules tested on CAKI-1 renal (assay: inhibition of tumour cell growth, NCI panel, 48 h).

Row | Compound | TGI [µM] | GI50 [µM]
30 | CCc1cccc(C)c1NC(=O)CC1C(=O)Nc2ccccc2S1=O (stereo unspecified) | > 100 | 
31 | Cc1ccc(N2C(=O)N(c3ccc(C)cc3)C3(SC=NN3C)C2=O)cc1 (stereo unspecified) | > 100 | 
32 | O=C1c2ccc3c4ccccc4n(-c4ccccc4)c3c2C(=O)N1c1ccc(Cl)cc1 | > 100 | 
33 | Cc1ccc2c(c1-c1ccccc1)C(=O)OC2 | > 100 | 
34 | CCC[CH2][Sn]1([CH2]CCC)[O]CC(COc2c(Cl)cc(Cl)cc2Cl)[O]1 (stereo unspecified) | 1.65 | 0.511
35 | NC(CCc1ncc(C(=O)O)s1)C(=O)O (stereo unspecified) | > 100 | 
36 | COc1cc(-c2nnc3n2NC=C(C(=O)O)S3)cc(OC)c1OC | > 100 | 
37 | C[P+](C)(C)c1ccccc1 | > 100 | 
38 | O=C1c2ccccc2C(=O)N1C/C=N/NS(=O)(=O)c1ccc(Br)cc1 | > 100 | 
39 | COc1cc(/C=C/C(=O)Oc2ccccc2)ccc1C(=O)O/C=C/c1ccccc1 | > 100 | 
40 | NC(=O)c1cn(Cc2ccccc2)c(=O)n1Cc1ccccc1 | > 100 | 
41 | CCOC(=O)C(C)(c1c(C)[nH]c2ccccc12)c1c(C)[nH]c2ccccc12 | 45.4 | 
42 | Cc1c(Cl)cccc1NC(=O)c1cccc([N+](=O)[O-])c1O | > 64.1 | 
43 | CC1COS(=O)O1 (stereo unspecified) | > 100 | 
44 | CC1CCC(C(C)(C)c2ccccc2)C(=O)C1 (stereo unspecified) | > 100 | 
45 | O=C1C=CC(=CC=C2C=CN(CCCCCCCCCCC(=O)NCCCCCCCCCCCC(=O)O)C=C2)C=C1 | > 100 | 
46 | CNC(C)[C@H]1CCC2C3CC=C4C(=O)[C@@H](NC(=O)C=C(C)C)CC[C@]4(C)C3CC[C@@]21C (stereo partly specified) | 5.53 | 1.68

Row | Compound | TGI [µM] | GI50 [µM]
47 | Clc1nc(Cl)c2ncn(Cc3ccccc3Cn3cnc4c(Cl)nc(Cl)nc43)c2n1 | 6.41 | 2.32
48 | C1COCCSC2=C(SCCO1)SC(=C1SC3=C(SCCOCCOCCS3)S1)S2 | > 100 | 
49 | O=C(Nc1ccc(Cl)cc1)Nc1nccs1 | 54.8 | 2.36
50 | CC(C)(C)c1cc(C(=O)/C=C/c2ccc(C(=O)O)cc2)cc(C(C)(C)C)c1 | 15.5 | 
51 | COc1cc(/C=N\O[Si](C)(C)C(C)(C)C)ccc1O[Si](C)(C)C(C)(C)C | > 100 | 
52 | Cc1noc2c1-c1ccccc1C(c1ccc(Cl)cc1)=N[C@H]2CC(N)=O | > 100 | 0.368
53 | O=C(N/N=C/c1ccc(O)cc1O)c1cccnc1 | 45.6 | 1.76
54 | O=C(NNc1cnccn1)c1nc2cc(F)ccc2n2cccc12 | > 100 | 0.422
55 | NCCCOc1cc(Cl)ccc1NC(=O)c1cc2ccccc2cc1OCCCN | 3.64 | 1.6
56 | NCCCOc1cc2ccccc2cc1C(=O)NCCCOc1cc2ccccc2cc1C(=O)Nc1ccc(Cl)cc1O | 2.42 | 0.829
57 | CCOC(=O)C1=C(N)Oc2c(sc3c(C)cccc23)C1c1ccc(F)cc1 (stereo unspecified) | 14.9 | 0.413
58 | O=C1/C(=C/N2N=C(c3ccc4ccccc4c3)CC2c2ccccc2O)SC(=S)N1c1cccnc1 (stereo unspecified) | > 100 | 1.03
59 | NC(N)=N/N=C(\N=Nc1ccccc1)c1ccc(Cl)cc1 | 3.29 | 1.42
60 | Nc1ccc(C2=N/C(=C\c3cccc(N)c3)C(=O)O2)cc1 | > 100 | 
61 | c1ccc2c(c1)c1ccccc1c1ccccc21 | > 100 | > 100
62 | NC(=O)CNc1ccc([As]=[As]c2ccc(NCC(N)=O)cc2)cc1 (stereo unspecified) | 17.9 | 2.41

Each molecule was assayed on HCC-2998 colon (assay: inhibition of tumour cell growth, NCI panel, 48 h).

Row | Compound | TGI [µM] | GI50 [µM]
63 | CCc1cccc(C)c1NC(=O)CC1C(=O)Nc2ccccc2S1=O (stereo unspecified) | > 100 | 
64 | Cc1ccc(N2C(=O)N(c3ccc(C)cc3)C3(SC=NN3C)C2=O)cc1 (stereo unspecified) | > 100 | 
65 | O=C1c2ccc3c4ccccc4n(-c4ccccc4)c3c2C(=O)N1c1ccc(Cl)cc1 | > 100 | 
66 | Cc1ccc2c(c1-c1ccccc1)C(=O)OC2 | > 100 | 
67 | CCC[CH2][Sn]1([CH2]CCC)[O]CC(COc2c(Cl)cc(Cl)cc2Cl)[O]1 (stereo unspecified) | 2.95 | 1.51
68 | NC(CCc1ncc(C(=O)O)s1)C(=O)O (stereo unspecified) | > 100 | 
69 | CSc1ccc2c(cc1=O)[C@@H](NC(=O)c1cc(O)c(O)c(O)c1)CCc1cc(O)c(O)c(O)c1-2 | > 100 | 
70 | COc1cc(-c2nnc3n2NC=C(C(=O)O)S3)cc(OC)c1OC | > 100 | 
71 | C[P+](C)(C)c1ccccc1 | > 100 | 
72 | O=C1c2ccccc2C(=O)N1C/C=N/NS(=O)(=O)c1ccc(Br)cc1 | > 100 | 
73 | COc1cc(/C=C/C(=O)Oc2ccccc2)ccc1C(=O)O/C=C/c1ccccc1 | > 100 | 
74 | NC(=O)c1cn(Cc2ccccc2)c(=O)n1Cc1ccccc1 | > 100 | 
75 | CCOC(=O)C(C)(c1c(C)[nH]c2ccccc12)c1c(C)[nH]c2ccccc12 | 45.2 | 
76 | Cc1c(Cl)cccc1NC(=O)c1cccc([N+](=O)[O-])c1O | 78.6 | 
77 | CC1COS(=O)O1 (stereo unspecified) | > 100 | 
78 | CC1CCC(C(C)(C)c2ccccc2)C(=O)C1 (stereo unspecified) | > 100 | 
79 | O=C1CC2CCN(C(=O)c3ccccc3)CC2CCN1 (stereo unspecified) | > 100 | 
80 | O=C1C=CC(=CC=C2C=CN(CCCCCCCCCCC(=O)NCCCCCCCCCCCC(=O)O)C=C2)C=C1 | > 100 | 
81 | CNC(C)[C@H]1CCC2C3CC=C4C(=O)[C@@H](NC(=O)C=C(C)C)CC[C@]4(C)C3CC[C@@]21C (stereo partly specified) | 3.02 | 0.626
82 | Clc1nc(Cl)c2ncn(Cc3ccccc3Cn3cnc4c(Cl)nc(Cl)nc43)c2n1 | 3.56 | 1.88
83 | C1COCCSC2=C(SCCO1)SC(=C1SC3=C(SCCOCCOCCS3)S1)S2 | > 100 | 
84 | O=C(Nc1ccc(Cl)cc1)Nc1nccs1 | 45.9 | 12.9
85 | CC(C)(C)c1cc(C(=O)/C=C/c2ccc(C(=O)O)cc2)cc(C(C)(C)C)c1 | 3.88 | 
86 | COc1cc(/C=N\O[Si](C)(C)C(C)(C)C)ccc1O[Si](C)(C)C(C)(C)C | 56.8 | 
87 | Cc1noc2c1-c1ccccc1C(c1ccc(Cl)cc1)=N[C@H]2CC(N)=O | > 100 | 9.5
88 | O=C(N/N=C/c1ccc(O)cc1O)c1cccnc1 | > 100 | 4.72
